Broadly, the melting point is the temperature, or range, at which the solid turns liquid. Turning to `O=C(O)/C=C/c1ccc(C(=C2CCCCCC2)c2ccc(O)c(F)c2)cc1` [Example 45, (2E)-3-{4-[(3-fluoro-4-hydroxyphenyl)(cycloheptylidene)methyl]phenyl}-2-propenoic acid], the melting point fell in the range of 164 to 165 °C.

`CC1(C)CC(=C(c2ccc(/C=C/C(=O)O)cc2)c2ccc(O)c(Cl)c2)CC(C)(C)C1` [Example 43, (2E)-3-{4-[(3-Chloro-4-hydroxyphenyl)(3,3,5,5-tetramethylcyclohexylidene)methyl]phenyl}-2-propenoic acid] gave a melting point of 111 to 114 °C.

The compound `CC(=O)Nc1ccc(C(=C2CC(C)(C)CC(C)(C)C2)c2ccc(O)cc2)cc1` [Example 21, N-{4-[(4-hydroxyphenyl)(3,3,5,5-tetramethylcyclohexylidene)methyl]phenyl}acetamide] displayed a melting point of 118 to 121 °C.

As to `CC1(C)CC(=C(c2ccc(O)cc2)c2ccc(C#CCCC(=O)O)cc2)CC(C)(C)C1` [Example 103, 5-{4-[(4-Hydroxyphenyl)(3,3,5,5-tetramethylcyclohexylidene)methyl]phenyl}-4-pentynoic acid], the melting point was 233 to 234 °C.

As for `CC1(C)CC(=C(c2ccc(O)cc2)c2ccc(C#CCO)cc2)CC(C)(C)C1` [Example 48, 4-[[4-(3-hydroxy-1-propyn-1-yl)phenyl](3,3,5,5-tetramethylcyclohexylidene)methyl]phenol], the melting point lay in the range of 141 to 142 °C.

Compound `CC(=O)c1ccc(C(=C2CC(C)(C)CC(C)(C)C2)c2ccc(O)cc2)cc1` [Example 104, 1-{4-[(4-Hydroxyphenyl)(3,3,5,5-tetramethylcyclohexylidene)methyl]phenyl}ethanone] displayed a melting point of 195 to 196 °C.

With `N#Cc1ccc(C(=C2CCCCCC2)c2ccc(O)cc2)cc1` [Example 77, 4-[cycloheptylidene(4-hydroxyphenyl)methyl]benzonitrile], the melting point lay in the range of 110 to 111 °C.

`CC1(C)CC(=C(c2ccc(O)cc2)c2ccc(-c3ccc(CO)cc3)cc2)CC(C)(C)C1` [Example 105, 4-[[4′-(Hydroxymethyl)-4-biphenylyl](3,3,5,5-tetramethylcyclohexylidene)methyl]phenol] had a melting point of 222 to 223 °C.

In turn, `CC1(C)CC(=C(c2ccc(O)cc2)c2ccc(CC(=O)O)cc2)CC(C)(C)C1` [Example 51, {4-[(4-Hydroxyphenyl)(3,3,5,5-tetramethylcyclohexylidene)methyl]phenyl}acetic acid] showed a melting point of 220 to 221 °C.

With `CC1(C)CC(=C(c2ccc(O)cc2)c2ccc(/C=C/C(=O)O)cc2)CC(C)(C)C1` [Example 6, (2E)-3-{4-[(4-Hydroxyphenyl)(3,3,5,5-tetramethylcyclohexylidene)methyl]phenyl}-2-propenoic acid], the melting point lay within 219 to 220 °C.

Take `CC1(C)CC(=C(c2ccc(O)cc2)c2ccc(CCC(=O)O)cc2)CC(C)(C)C1` [Example 61, 3-{4-[(4-Hydroxyphenyl)(3,3,5,5-tetramethylcyclohexylidene)methyl]phenyl}propanoic acid]: the melting point was 243 to 244 °C.

`CC1(C)CC(=C(c2ccc(O)cc2)c2ccc(-c3cccc(CO)c3)cc2)CC(C)(C)C1` [Example 106, 4-[[3′-(Hydroxymethyl)-4-biphenylyl](3,3,5,5-tetramethylcyclohexylidene)methyl]phenol] had a melting point of 197 to 198 °C.

With `O=C(O)/C=C/c1ccc(C(=C2CCCCCC2)c2ccc(O)c(Cl)c2)cc1` [Example 42, (2E)-3-{4-[(3-Chloro-4-hydroxyphenyl)(cycloheptylidene)methyl]phenyl}-2-propenoic acid], the melting point lay in the range of 155 to 156 °C.

`CC1(C)CC(=C(c2ccc(/C=C/C(=O)O)cc2)c2ccc(O)c(Cl)c2)CC(C)(C)O1` [Example 44, (2E)-3-{4-[(3-Chloro-4-hydroxyphenyl)(2,2,6,6-tetramethyltetrahydro-4H-pyran-4-ylidene)methyl]phenyl}-2-propenoic acid]: the melting point is 118 to 121 °C.

With `CC1(C)CC(=C(c2ccc(O)cc2)c2ccc(-c3ccoc3)cc2)CC(C)(C)C1` [Example 94, 4-[[4-(3-furanyl)phenyl](3,3,5,5-tetramethylcyclohexylidene)methyl]phenol], the melting point fell in the range of 128 to 129 °C.

Consider `CC1(C)CC(=C(c2ccc(O)cc2)c2ccc(C(N)=O)cc2)CC(C)(C)C1` [Example 31, 4-[(4-hydroxyphenyl)(3,3,5,5-tetramethylcyclohexylidene)methyl]benzamide], for which the melting point is 209 to 210 °C.

For `CC1(C)CC(=C(c2ccc(O)cc2)c2ccc(OCCCC(=O)O)cc2)CC(C)(C)C1` [Example 84, 4-({4-[(4-hydroxyphenyl)(3,3,5,5-tetramethylcyclohexylidene)methyl]phenyl}oxy)butanoic acid], the melting point is 203 to 204 °C.

In turn, `CC(C)(O)C#Cc1ccc(C(=C2CC(C)(C)CC(C)(C)C2)c2ccc(O)cc2)cc1` [Example 101, 4-[[4-(3-hydroxy-3-methyl-1-butyn-1-yl)phenyl](3,3,5,5-tetramethylcyclohexylidene)methyl]phenol] displayed a melting point of 186 to 187 °C.

Turning to `CC1(C)CC(=C(c2ccc(/C=C/C(=O)O)cc2)c2ccc(O)c(F)c2)CC(C)(C)O1` [Example 46, (2E)-3-{4-[(3-fluoro-4-hydroxyphenyl)(2,2,6,6-tetramethyltetrahydro-4H-pyran-4-ylidene)methyl]phenyl}-2-propenoic acid], the melting point lay within 125 to 128 °C.

With `CC1(C)CC(=C(c2ccc(O)cc2)c2ccc(OCCO)cc2)CC(C)(C)C1` [Example 32, 4-[{4-[(2-Hydroxyethyl)oxy]phenyl}(3,3,5,5-tetramethylcyclohexylidene)methyl]phenol], the melting point lay within 154 to 155 °C.

Take `O=C(O)COc1ccc(C(=C2CCCCCC2)c2ccc(O)cc2)cc1` [Example 68, ({4-[Cycloheptylidene(4-hydroxyphenyl)methyl]phenyl}oxy)acetic acid]: the melting point lay within 170 to 171 °C.

With `CC1(C)CC(=C(c2ccc(O)cc2)c2ccc(CCO)cc2)CC(C)(C)C1` [Example 92, 4-[[4-(2-Hydroxyethyl)phenyl](3,3,5,5-tetramethylcyclohexylidene)methyl]phenol], the melting point was 159 to 160 °C.

For `CC1(C)CC(=C(c2ccc(O)cc2)c2ccc(CCCO)cc2)CC(C)(C)C1` [Example 93, 4-[[4-(3-Hydroxypropyl)phenyl](3,3,5,5-tetramethylcyclohexylidene)methyl]phenol], the melting point is 160 to 161 °C.

As for `CC1(C)CC(=C(c2ccc(O)cc2)c2ccc(OCC(=O)O)cc2)CC(C)(C)C1` [Example 83, ({4-[(4-Hydroxyphenyl)(3,3,5,5-tetramethylcyclohexylidene)methyl]phenyl}oxy)acetic acid], the melting point fell in the range of 163 to 164 °C.

In turn, `CC1(C)CC(=C(c2ccc(O)cc2)c2ccc(C#CCCO)cc2)CC(C)(C)C1` [Example 102, 4-[[4-(4-hydroxy-1-butyn-1-yl)phenyl](3,3,5,5-tetramethylcyclohexylidene)methyl]phenol] registered a melting point of 183 to 184 °C.

For `CC1(C)CC(=C(c2ccc(O)cc2)c2ccc(CO)cc2)CC(C)(C)C1` [Example 91, 4-[[4-(Hydroxymethyl)phenyl](3,3,5,5-tetramethylcyclohexylidene)methyl]phenol], the melting point fell in the range of 134 to 135 °C.

`CC1(C)CC(=C(c2ccc(O)cc2)c2ccc(OCCOCCO)cc2)CC(C)(C)C1` [Example 23, 4-[[4-({2-[(2-Hydroxyethyl)oxy]ethyl}oxy)phenyl](3,3,5,5-tetramethylcyclohexylidene)methyl]phenol] displayed a melting point of 122 to 124 °C.

`CC1(C)CC(=C(c2ccc(/C=C/C(=O)O)cc2)c2ccc(O)c(F)c2)CC(C)(C)C1` [Example 47, (2E)-3-{4-[(3-fluoro-4-hydroxyphenyl)(3,3,5,5-tetramethylcyclohexylidene)methyl]phenyl}-2-propenoic acid]: the melting point lay within 193 to 195 °C.

Take `CC1(C)CC(=C(c2ccc(O)cc2)c2ccc(-c3ccccc3CO)cc2)CC(C)(C)C1` [Example 108, 4-[[2′-(Hydroxymethyl)-4-biphenylyl](3,3,5,5-tetramethylcyclohexylidene)methyl]phenol]: the melting point lay within 171 to 172 °C.

Compound `CC1(C)CC(=C(c2ccc(O)cc2)c2ccc(-c3ccccc3C(=O)O)cc2)CC(C)(C)C1` [Example 107, 4′-[(4-Hydroxyphenyl)(3,3,5,5-tetramethylcyclohexylidene)methyl]-2-biphenylcarboxylic acid] gave a melting point of 230 to 231 °C.

For `C#Cc1ccc(C(=C2CC(C)(C)CC(C)(C)C2)c2ccc(O)cc2)cc1` [Example 49, 4-[(4-Ethynylphenyl)(3,3,5,5-tetramethylcyclohexylidene)methyl]phenol], the melting point lay within 138 to 139 °C.

For `CC1(C)CC(=C(c2ccc(O)cc2)c2ccc(S(C)(=O)=O)cc2)CC(C)(C)C1` [Example 30, 4-[[4-(Methylsulfonyl)phenyl](3,3,5,5 tetramethylcyclohexylidene)methyl]phenol], the melting point was in the range of 149 to 150 °C.

In turn, `OCCCC#Cc1ccc(C(=C2CCCCCC2)c2ccc(O)cc2)cc1` [Example 100, 4-{Cycloheptylidene[4-(5-hydroxy-1-pentyn-1-yl)phenyl]methyl}phenol] yielded a melting point of 125 to 126 °C.

These data come from patent publication US7569601B2, “Cycloalkylidene compounds as modulators of estrogen receptor” (SmithKline Beecham Corporation, priority 2003, dated 2009).
